Test results from PMC9981206 (Cancer Research Communications, 2022).

What was measured:
Assay type in all cases: cell-based
[1] = tested on: WNT/β-catenin signaling; test: luciferase-based WNT/β-catenin signaling reporter assay in HEK293 cells; details: Homo sapiens, HEK293, read-out: WNT reporter IC50
Description: (§1) The cell lines where obtained from ATCC or the Japanese Collection of Research Bioresources (JCRB) in 2014 and culturing was performed as described previously ([7]). The cell cultures were kept below 20 passages (∼10 weeks) and routinely monitored (upon thawing and monthly) for Mycoplasma infections with MycoAlert Mycoplasma Detection Kit (Lonza). All cell lines were authenticated by short tandem repeat profiling to confirm their identity (Eurofins). TNKS1/2 and PARP1 biochemical assays ([27, 32]), luciferase-based WNT/β-catenin signaling pathway reporter assay ([22, 27, 32]), anti-proliferative assays, and NCI-60 tumor cell line panel screen ([7]), immunoblot analyses ([7, 32, 39]), RNA isolation, and real-time qRT-PCR ([7, 27, 39, 40]) were performed as previously described.

[2] = tested on: COLO 320DM colon carcinoma cells; test: MTS colorimetric cell growth assay, COLO 320DM; details: Homo sapiens, 120 h, read-out: COLO320DM GI50
Excerpt: as §1, with “The” for “The cell lines where obtained from ATCC or the Japanese Collection of Research Bioresources (JCRB) in 2014 and culturing was performed as described previously ([7]). The”
(§2) B, IC50 values for inhibition of TNKS1, TNKS2, and PARP1 (biochemical assays) and luciferase-based WNT/β-catenin signaling reporter assay in HEK293 cells (WNT reporter). […] Mean ± SD values from a minimum of three independent experiments are shown. For B and C, numbers in superscript indicate data from reference 22, 27, 31, and 32. […] C, MTS colorimetric cell growth assay for various concentrations of tankyrase inhibitors in treated COLO 320DM and RKO colon cancer cells. […] Data from one representative experiment of more than three repeated assays, each with six replicates, are shown.

[3] = tested on: RKO colon carcinoma cells; test: MTS colorimetric cell growth assay, RKO; details: Homo sapiens, 120 h, read-out: RKO GI50
Excerpt: as §1, with “The” for “The cell lines where obtained from ATCC or the Japanese Collection of Research Bioresources (JCRB) in 2014 and culturing was performed as described previously ([7]). The”
as §2

| Compound | IC50 [1] [nM] | GI50 [2] [nM] | GI50 [3] [nM] |
| --- | --- | --- | --- |
| Cc1cc(N2C[C@@H](C)N[C@@H](C)C2)ncc1-c1ccc(-c2nc3c(ccn3C)c(=O)[nH]2)cc1 [AZ6102] | 16 ± 4.5 | 50 | 6700 |
| Oc1nc(-c2ccc(C(F)(F)F)cc2)nc2c1CSCC2 [XAV939] | 220 ± 21 | > 10000 | 9500 |
